Results on four compounds are retold here after patent US11365263B2, “Bifunctional cytotoxic agents containing the CTI pharmacophore” (PFIZER INC., priority 2015, dated 2022).

Each structure is given as a SMILES string.

As usually defined, the IC50 is the midpoint of a concentration-inhibition curve.

What all share (type): cell-based
One test relates to HL60 (leukemia). The test can be described thus: Cytotoxicity assay for payloads (MTS), HL60. The note with it: Homo sapiens, HL-60, 96 h, HL60 cells, four days incubation, read-out: Free payload potency (IC50), HL60. How it is done: (§1) Cancer cell lines were obtained from ATCC (Manassas, Va.). N87 (human gastric carcinoma derived from metastatic liver site). HL60 (leukemia) and MDA-MB-361 DYT2 (human breast carcinoma MDA-MB-361) were grown in RPMI 1640 media. All media were supplemented with 10% fetal bovine serum, 1% sodium pyruvate, and 1% L-glutamine (Invitrogen, Grand Island, N.Y.). Human umbilical vein endothelial cells (HUVEC) were obtained from Lonza (Allendale, N.J.) and maintained in EGM2 media supplemented with EGM-2 SingleQuots (Lonza #CC-4176). All cells were maintained in a humidified incubator (37° C., 5% CO2).
(§2) Cytotoxicity Assay Procedure for Payloads
(§3) Cells in 100 μl medium were cultured in a 96-well plate. Cancer cell lines treated with the indicated compounds by adding 50 μl of 3× stocks in duplicate at 10 concentrations. Cells were incubated with compounds for four days, then 30 μl of CellTiter® 96 AQueous One MTS Solution (Promega Cat #G3582) was added to the cells, incubated 1.5 hr at 37° C., then absorbance measured at 490 nm on a Victor plate reader (Perkin Elmer, Waltham, Mass.). Relative cell viability was determined as a percentage of untreated control wells. IC50 values were calculated using four parameter logistic model #203 with XLfit v4.2 (IDBS, Guildford, Surry, UK).

Test [1] deals with MDA-MB-361 DYT2 (human breast carcinoma). The test can be described thus: Cytotoxicity assay for payloads (MTS), MDA-MB-361 DYT2. Particulars: 96 h, MDA-MB-361 DYT2 cells, four days incubation, read-out: Free payload potency (IC50), DYT2. How it is done:
as §1, §2, §3

Test [2] concerns N87 (human gastric carcinoma). The test can be described thus: Cytotoxicity assay for payloads (MTS), N87. The note with it: 96 h, N87 cells, four days incubation, read-out: Free payload potency (IC50), N87. How it is done:
as §1, §2, §3

Regarding `CC(=O)Oc1cc2c(c3c(C)csc13)[C@H](CCl)CN2C(=O)C12C3C4C1C1C2C3C41C(=O)N1C[C@@H](CCl)c2c1cc(OC(C)=O)c1scc(C)c21` (stereo partly drawn) [Compound 60, pentacyclo[4.2.0.0^˜2,5^˜.0^˜3,8^˜.0^˜4,7^˜]octane-1,4-diylbis[carbonyl(8S)-8-(chloromethyl)-1-methyl-7,8-dihydro-6H-thieno[3,2-e]indole-6,4-diyl]diacetate], the half-maximal inhibitory concentration (IC50) in the test with HL60 (leukemia) was found to be 0.009 nM; in test [1], 0.079 nM; in test [2] it was 0.122 nM.
As for `[2H]C([2H])(CC([2H])([2H])C(=O)N1C[C@@H](CCl)c2c1cc(OC(C)=O)c1scc(C)c21)C(=O)N1C[C@@H](CCl)c2c1cc(OC(C)=O)c1scc(C)c21` [Compound 88], the results for the IC50 (in the test on HL60 (leukemia); in test [1]; in test [2]) were 0.41 nM, 0.004 nM and 0.041 nM, respectively.
In the case of `[2H]C([2H])(CC(=O)N1C[C@@H](CCl)c2c1cc(OC(C)=O)c1scc(C)c21)CC(=O)N1C[C@@H](CCl)c2c1cc(OC(C)=O)c1scc(C)c21` [Compound 87], the IC50 is 0.349 nM in the test with HL60 (leukemia), 0.002 nM in test [1] and 0.036 nM in test [2].
Taken in the same sequence, the figures for `[2H]C([2H])(C(=O)N1C[C@@H](CCl)c2c1cc(OC(C)=O)c1scc(C)c21)C([2H])([2H])C([2H])([2H])C(=O)N1C[C@@H](CCl)c2c1cc(OC(C)=O)c1scc(C)c21` [Compound 89] were 0.302 nM, 0.002 nM and 0.041 nM.
